Laboratory results reported in PMC8161055, “Synthesis and α-Glucosidase Inhibition Activity of 2-[3-(Benzoyl/4-bromobenzoyl)-4-hydroxy-1,1-dioxido-2H-benzo[e][1,2]thiazin-2-yl]-N-arylacetamides: An In Silico and Biochemical Approach” (Molecules, 2021).

Columns and labels:
aldose-reductase = target: aldose-reductase; parameters: method as in PMID 22036211; conditions: cited from earlier work
α-glucosidase = target: T1, α-glucosidase (Saccharomyces cerevisiae, UniProt P53341); assay: biochemical; assay type: biochemical; conditions: for inhibition at 200 µM: read-out: Inhibitions (%); for effectiveness as inhibitor compared to acarbose: ratio of IC50 values vs acarbose
T1 construct: purchased Sigma-Aldrich, Munich, Germany
Method: In vitro analysis of all the synthesized compounds was performed in order to justify the validity of in silico outcomes. Results were found in good agreement with the in silico study. […] A general spectrophotometric technique was used to perform the α-glucosidase inhibition assay with slight modifications. […] The experiment was repeated thrice and inhibition percentages were calculated using the following formula. % Inhibition = [(A control − A sample) / A control] × 100(1) where ‘A’ stands for absorbance.

SARS-CoV-2 = system: SARS-CoV-2; parameters: method as in PMID 33160024; conditions: cited from earlier work
human 11β-HSD1 = system: human 11β-HSD1; parameters: method as in PMID 21212546; conditions: cited from earlier work

T1 sequence (P53341 whole entry): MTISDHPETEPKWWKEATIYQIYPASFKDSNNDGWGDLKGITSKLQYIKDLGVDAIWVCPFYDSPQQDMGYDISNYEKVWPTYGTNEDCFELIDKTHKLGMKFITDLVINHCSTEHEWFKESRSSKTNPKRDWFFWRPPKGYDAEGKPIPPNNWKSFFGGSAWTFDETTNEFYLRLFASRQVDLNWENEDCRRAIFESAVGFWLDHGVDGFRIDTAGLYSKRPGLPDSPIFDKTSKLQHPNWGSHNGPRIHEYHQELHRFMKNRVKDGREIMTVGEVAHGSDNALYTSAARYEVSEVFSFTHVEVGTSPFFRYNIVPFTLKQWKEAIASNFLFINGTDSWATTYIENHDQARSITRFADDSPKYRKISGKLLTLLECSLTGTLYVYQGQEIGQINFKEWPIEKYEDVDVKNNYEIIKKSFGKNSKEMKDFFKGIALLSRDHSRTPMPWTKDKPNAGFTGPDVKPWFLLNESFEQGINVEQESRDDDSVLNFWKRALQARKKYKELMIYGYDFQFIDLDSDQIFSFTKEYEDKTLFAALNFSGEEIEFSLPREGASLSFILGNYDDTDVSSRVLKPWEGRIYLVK

SMILES | inhibition at 200 µM (α-glucosidase) [%] | melting point [°C] | IC50 (α-glucosidase) [µM] | other results
O=C(O)C=C1CN(Cc2ccc(Br)cc2F)S(=O)(=O)c2ccccc21 [2-(2-(4-bromo-2-fluorobenzyl)-1,1-dioxido-2H-benzo[e][1,2]thiazin-4(3H)-ylidene)acetic acid] | – | – | – | IC50 (aldose-reductase): 0.11 µM
O=C(CN1C(C(=O)c2ccccc2)=C(O)c2ccccc2S1(=O)=O)Nc1ccc(Br)cc1 [Compound 11k, 2-(3-Benzoyl-4-hydroxy-1,1-dioxido-2H-benzo[e][1,2]thiazin-2-yl)-N-(4-bromophenyl)acetamide] | 13 | 150 to 153 | – | –
COc1ccccc1NC(=O)CN1C(C(=O)c2ccccc2)=C(O)c2ccccc2S1(=O)=O [Compound 11l, 2-(3-Benzoyl-4-hydroxy-1,1-dioxido-2H-benzo[e][1,2]thiazin-2-yl)-N-(2-methoxyphenyl)acetamide] | 54 | 199 to 200 | > 100 | –
COc1ccc(NC(=O)CN2C(C(=O)c3ccccc3)=C(O)c3ccccc3S2(=O)=O)cc1 [Compound 11m, 2-(3-Benzoyl-4-hydroxy-1,1-dioxido-2H-benzo[e][1,2]thiazin-2-yl)-N-(4-methoxyphenyl)acetamide] | 69 | 164 to 165 | – | –
O=C(CN1C(C(=O)c2ccc(Br)cc2)=C(O)c2ccccc2S1(=O)=O)Nc1ccccc1Cl [Compound 12a, 2-(3-(4-Bromobenzoyl)-4-hydroxy-1,1-dioxido-2H-benzo[e][1,2]thiazin-2-yl)-N-(2-chlorophenyl)acetamide] | 79 | 180 to 181 | 18.2 | effectiveness as inhibitor compared to acarbose (α-glucosidase): roughly three-fold
O=C(CN1C(C(=O)c2ccc(Br)cc2)=C(O)c2ccccc2S1(=O)=O)Nc1cccc(Cl)c1 [Compound 12b, 2-(3-(4-Bromobenzoyl)-4-hydroxy-1,1-dioxido-2H-benzo[e][1,2]thiazin-2-yl)-N-(3-chlorophenyl)acetamide] | 47 | 148 to 150 | – | –
O=C(CN1C(C(=O)c2ccc(Br)cc2)=C(O)c2ccccc2S1(=O)=O)Nc1ccc(Cl)cc1 [Compound 12c, 2-(3-(4-Bromobenzoyl)-4-hydroxy-1,1-dioxido-2H-benzo[e][1,2]thiazin-2-yl)-N-(4-chlorophenyl)acetamide] | 61 | 181 to 184 | > 100 | –
Cc1ccccc1NC(=O)CN1C(C(=O)c2ccc(Br)cc2)=C(O)c2ccccc2S1(=O)=O [Compound 12d, 2-(3-(4-Bromobenzoyl)-4-hydroxy-1,1-dioxido-2H-benzo[e][1,2]thiazin-2-yl)-N-(o-tolyl)acetamide] | 76 | 193 to 194 | 20.8 | effectiveness as inhibitor compared to acarbose (α-glucosidase): roughly three-fold
Cc1cccc(NC(=O)CN2C(C(=O)c3ccc(Br)cc3)=C(O)c3ccccc3S2(=O)=O)c1 [Compound 12e, 2-(3-(4-Bromobenzoyl)-4-hydroxy-1,1-dioxido-2H-benzo[e][1,2]thiazin-2-yl)-N-(m-tolyl)acetamide] | 71 | 143 to 144 | 35.1 | –
Cc1ccc(NC(=O)CN2C(C(=O)c3ccc(Br)cc3)=C(O)c3ccccc3S2(=O)=O)cc1 [Compound 12f, 2-(3-(4-Bromobenzoyl)-4-hydroxy-1,1-dioxido-2H-benzo[e][1,2]thiazin-2-yl)-N-(p-tolyl)acetamide] | 20 | 190 to 192 | – | –
O=C(CN1C(C(=O)c2ccc(Br)cc2)=C(O)c2ccccc2S1(=O)=O)Nc1ccccc1[N+](=O)[O-] [Compound 12g, 2-(3-(4-Bromobenzoyl)-4-hydroxy-1,1-dioxido-2H-benzo[e][1,2]thiazin-2-yl)-N-(2-nitrophenyl)acetamide] | 76 | 177 to 178 | 24.2 | –
O=C(CN1C(C(=O)c2ccc(Br)cc2)=C(O)c2ccccc2S1(=O)=O)Nc1cccc([N+](=O)[O-])c1 [Compound 12h, 2-(3-(4-Bromobenzoyl)-4-hydroxy-1,1-dioxido-2H-benzo[e][1,2]thiazin-2-yl)-N-(3-nitrophenyl)acetamide] | 58 | 208 to 209 | > 100 | –
O=C(CN1C(C(=O)c2ccc(Br)cc2)=C(O)c2ccccc2S1(=O)=O)Nc1ccc([N+](=O)[O-])cc1 [Compound 12i, 2-(3-(4-Bromobenzoyl)-4-hydroxy-1,1-dioxido-2H-benzo[e][1,2]thiazin-2-yl)-N-(4-nitrophenyl)acetamide] | 33 | 210 to 212 | – | –
O=C(CN1C(C(=O)c2ccc(Br)cc2)=C(O)c2ccccc2S1(=O)=O)Nc1cccc(Br)c1 [Compound 12j, 2-(3-(4-Bromobenzoyl)-4-hydroxy-1,1-dioxido-2H-benzo[e][1,2]thiazin-2-yl)-N-(3-bromophenyl)acetamide] | 12 | 145 to 147 | – | –
O=C(CN1C(C(=O)c2ccc(Br)cc2)=C(O)c2ccccc2S1(=O)=O)Nc1ccc(Br)cc1 [Compound 12k, 2-(3-(4-Bromobenzoyl)-4-hydroxy-1,1-dioxido-2H-benzo[e][1,2]thiazin-2-yl)-N-(4-bromophenyl)acetamide] | 48 | 200 to 203 | – | –
COc1ccccc1NC(=O)CN1C(C(=O)c2ccc(Br)cc2)=C(O)c2ccccc2S1(=O)=O [Compound 12l, 2-(3-(4-Bromobenzoyl)-4-hydroxy-1,1-dioxido-2H-benzo[e][1,2]thiazin-2-yl)-N-(2-methoxyphenyl)acetamide] | 34 | 186 to 187 | – | –
O=C(CN1C(C(=O)Nc2ccc(F)c(Cl)c2)=C(O)c2ccc(F)cc2S1(=O)=O)Nc1ccc(C(F)(F)F)cc1 [compound 4] | – | – | – | IC50 (SARS-CoV-2): 0.88 µM
O=C(CN1C(C(=O)Nc2ccccc2)=C(O)c2ccccc2S1(=O)=O)Nc1cccc(C(F)(F)F)c1 [derivative 3] | – | – | – | IC50 (human 11β-HSD1): 0.041 µM
